Source: patent US9572878B2, “Method of combination therapy using an EGFR antagonist and anti-c-Met antibody” (SAMSUNG ELECTRONICS CO., LTD., priority 2013, dated 2017)
Values belong to the molecule of their own block, whether it stands above or below them.

Experiments:
HCC827 ER #15 cell line = assay: Confirmation of erlotinib resistance, cell number by CCK-8; type: cell-based, human; conditions: HCC827 ER #15 vs HCC827; various concentrations, 120 hours; FIG. 3
Method: HCC827 human lung cancer cell line was in vitro treated with an EGFR antagonist erlotinib for a given period to establish HCC827 ER(HCC827 erlotinib-resistant) cell line. More specifically, HCC827 human lung cancer cell line (CRL-2868, ATCC) was in vitro treated with an EGFR antagonist erlotinib (Roche) in an amount of 5 nM to 10 nM for 5 months or more, to construct Erlotinib resistant cell (ER cell) clone.

HCC827 ER #15 = assay: Combined use of erlotinib and antibodies in erlotinib resistant cell line, cell number by CCK-8; type: cell-based, human
Method: In a 96 well plate, diluted HCC827 ER #15 was seeded at 5000 cells/well in a […] medium (GIBCO) containing 10% FBS, and then, incubated at 37° C. overnight. On the next day, the medium was replaced with a RPMI1640 medium containing 1% FBS (GIBCO), and then, the antibody was serially diluted from 100 ug/ml, and the cells were treated therewith at 100 ul. For co-administration, the cells were treated with 10 nM or 100 nM erlotinib, together with the antibody. After 5 days, the number of cells was measured using a CCK-8 reagent (Dojindo laboratory).

c-Met = c-Met (Homo sapiens, UniProt P08581); assay: Specificity of expressed scFv of huAbF46; type: binding; conditions: expressed scFv product
Chain of c-Met (P08581 25-1390): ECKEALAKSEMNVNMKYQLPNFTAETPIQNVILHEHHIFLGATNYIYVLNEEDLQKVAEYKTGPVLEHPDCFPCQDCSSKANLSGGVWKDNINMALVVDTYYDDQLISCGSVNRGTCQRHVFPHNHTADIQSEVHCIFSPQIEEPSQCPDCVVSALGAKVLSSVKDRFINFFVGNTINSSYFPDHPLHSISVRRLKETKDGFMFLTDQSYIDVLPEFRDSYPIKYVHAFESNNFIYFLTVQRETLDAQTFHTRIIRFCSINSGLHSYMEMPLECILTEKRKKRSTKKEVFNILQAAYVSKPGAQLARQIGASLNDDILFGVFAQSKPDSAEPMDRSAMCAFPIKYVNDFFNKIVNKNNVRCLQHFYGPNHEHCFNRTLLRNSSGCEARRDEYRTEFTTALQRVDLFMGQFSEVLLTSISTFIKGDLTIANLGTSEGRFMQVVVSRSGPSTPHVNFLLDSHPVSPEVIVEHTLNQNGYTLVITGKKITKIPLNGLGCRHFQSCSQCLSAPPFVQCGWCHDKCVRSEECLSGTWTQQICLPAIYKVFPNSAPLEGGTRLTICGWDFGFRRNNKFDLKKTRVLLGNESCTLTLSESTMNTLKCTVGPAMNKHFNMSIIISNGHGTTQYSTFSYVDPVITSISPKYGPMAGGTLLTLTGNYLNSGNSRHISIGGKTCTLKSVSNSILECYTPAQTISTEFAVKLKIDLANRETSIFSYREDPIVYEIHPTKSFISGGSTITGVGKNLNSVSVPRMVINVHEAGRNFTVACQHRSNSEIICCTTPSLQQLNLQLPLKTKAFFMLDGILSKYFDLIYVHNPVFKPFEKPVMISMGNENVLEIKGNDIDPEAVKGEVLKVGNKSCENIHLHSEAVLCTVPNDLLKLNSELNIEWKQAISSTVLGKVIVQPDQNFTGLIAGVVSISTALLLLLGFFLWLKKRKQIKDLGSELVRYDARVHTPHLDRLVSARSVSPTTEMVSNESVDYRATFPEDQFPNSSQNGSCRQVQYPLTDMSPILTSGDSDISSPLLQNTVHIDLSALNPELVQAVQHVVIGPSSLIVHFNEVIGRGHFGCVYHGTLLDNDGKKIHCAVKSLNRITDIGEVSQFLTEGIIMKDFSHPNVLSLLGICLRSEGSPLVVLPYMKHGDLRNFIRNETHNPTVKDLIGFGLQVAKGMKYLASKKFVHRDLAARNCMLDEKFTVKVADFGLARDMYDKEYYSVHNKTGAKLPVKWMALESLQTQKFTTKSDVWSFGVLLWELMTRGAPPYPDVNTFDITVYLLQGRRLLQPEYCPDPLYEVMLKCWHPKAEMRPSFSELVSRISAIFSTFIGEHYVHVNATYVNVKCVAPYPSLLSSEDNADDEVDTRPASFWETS
Description: For use in constructing an scFv of the huAbF46 antibody from the heavy and light chain variable regions of the huAbF46 antibody, a gene was designed to have the structure of “VH-linker-VL” for each of the heavy and the light chain variable region, with the linker having the amino acid sequence “[…]” (SEQ ID NO: 54). A polynucleotide sequence (SEQ ID NO: 55) encoding the designed scFv of huAbF46 was synthesized in Bioneer and an expression vector for the polynucleotide had the nucleotide sequence of SEQ ID NO: 56.

Molecule: C#Cc1cccc(Nc2ncnc3cc(OCCOC)c(OCCOC)cc23)c1 [erlotinib]
resistance of cell line to EGFR antagonist (HCC827 ER #15 cell line): resistance occurred

Molecule: Rituximab [reference compound]
synergistic effect of co-administration with erlotinib (HCC827 ER #15; HCC827 ER #15, antibody dilution series with 10 nM or 100 nM erlotinib, 5 days, FIGS. 4a-4d): synergistic effect was not observed | synergistic effects on cell viability, co-administration with erlotinib at fixed concentrations (HCC827 ER #15; HCC827 ER#15, antibodies 0.14 μg/ml, erlotinib 10 nM, FIG. 5): synergistic effects were not observed

specificity to c-Met (c-Met): exhibit specificity to c-Met
B1: scFv of huAbF46: VH-linker-VL single-chain Fv of the huAbF46 antibody (polynucleotide SEQ ID NO: 55) (protein)
scFv: EVQLVESGGGLVQPGGSLRLSCAASGFTFTDYYMSWVRQAPGKGLEWLGFIRNKANGYTTEYSASVKGRFTISRDNSKNTLYLQMNSLRAEDTAVYYCARDNWFAYWGQGTLVTVSSGLGGLGGGGSGGGGSGGSSGVGSDIQMTQSPSSLSASVGDRVTITCKSSQSLLASGNQNNYLAWHQQKPGKAPKMLIIWASTRVSGVPSRFSGSGSGTDFTLTISSLQPEDFATYYCQQSYSAPLTFGQGTKVEIKR
